According to patent US8329425B2, “Method and system for detection of chloramphenicol” (priority 2011, dated 2012):

Key:
CAT I V28W mutant [1] = biological target: T1, CAT I V28W mutant (Escherichia coli, UniProt P62577, C126A/C196A/C212A/C31A/C91A/V28W); assay: Fluorescence response of fluorescein-linked chloramphenicol to CAT I V28W mutant; type: binding, E. coli; set-up: His6 (N); made in house; host or cells: E. coli BL21 (DE3); conditions: 0.15 μM fluorescein-linked chloramphenicol, 1.5 μM CAT I V28W (FIG. 6); excitation 494 nm, slit width 5 nm
From the text: The excitation wavelength is 494 nm and the slit width is 5 nm.

CAT I V28W mutant [2] = biological target: T1, CAT I V28W mutant; conditions: chloramphenicol 10 μM; CAT I V28W and fluorescein-linked chloramphenicol fixed at 0.15 μM; excitation 494 nm
Method: Fluorescence measurements were performed on a Perkin Elmer LS 50B spectrofluorometer with the excitation wavelength set at 494 nm and the excitation and emission slit width set at 5 nm.

SMILES	fluorescence of fluorescein-linked chloramphenicol in the presence of CAT I V28W mutant (CAT I V28W mutant [1])	increase in fluorescence (CAT I V28W mutant [2]) [%]
O=C(CCCCCNC(=S)Nc1ccc(-c2c3ccc(=O)cc-3oc3cc(O)ccc23)c(C(=O)O)c1)N[C@H](CO)[C@H](O)c1ccc([N+](=O)[O-])cc1 [fluorescein-linked chloramphenicol, 5-(3-(6-(((1R,2R)-1,3-dihydroxy-1-(4-nitrophenyl)propan-2-yl)amino)-6-oxohexyl)thioureido)-2-(6-hydroxy-3-oxo-3H-xanthen-9-yl)benzoic acid]	significantly reduced	–
O=C(N[C@H](CO)[C@H](O)c1ccc([N+](=O)[O-])cc1)C(Cl)Cl [chloramphenicol]	–	~10
